One test deals with Staphylococcus aureus. Put plainly: Antibacterial activity against methicillin-sensitive Staphylococcus aureus ATCC 25923 measured after 18 hrs by broth dilution method. The test is classed as functional. To be noted: ATCC 25923, 18 h. (In general: Dilution methods test growth across graded concentrations, often in twofold steps.)
Another test concerns Micrococcus luteus. Put plainly: Antibacterial activity against Micrococcus luteus ATCC 9431 measured after 18 hrs by broth dilution method. The test is classed as functional. To be noted: ATCC 9431, 18 h.

Drawing on ChEMBL document CHEMBL3864122, “Antibacterial sulfur-containing platensimycin and platencin congeners from Streptomyces platensis SB12029” (2016), this text covers MIC for three molecules.

Consider `COc1ccc(C(=O)SC)c(OC)c1NC(=O)CC[C@]1(C)C(=O)C=C[C@]23C[C@H]4C[C@H](O[C@@]4(C)C2)[C@H]31`, for which the minimal inhibitory concentration (MIC) (commonly the lowest concentration that inhibits growth of the organism) is > 64 µg/mL in the test with Staphylococcus aureus and 64 µg/mL with Micrococcus luteus.

With `C[C@]12C[C@@]34C=CC(=O)[C@@](C)(CCC(=O)Nc5c(O)ccc(C(=O)O)c5O)[C@@H]3[C@H](C[C@@H]1C4)O2`, the MIC in the test on Staphylococcus aureus and in the test with Micrococcus luteus was 1.13 µM in each case.

As for `C[C@]12C[C@@]34C=CC(=O)[C@@](C)(CCC(=O)Nc5c(O)ccc(C(=O)S[C@H]6CC(=O)[C@@](C)(CCC(=O)Nc7c(O)ccc(C(=O)O)c7O)[C@@H]7[C@@H]8C[C@@H]9C[C@]67C[C@]9(C)O8)c5O)[C@@H]3[C@H](C[C@@H]1C4)O2`, the MIC against Staphylococcus aureus was determined as 0.56 µM; against Micrococcus luteus, 0.28 µM.
